According to publication PMC8443647, “Hybrid derivative of cathelicidin and human beta defensin-2 against Gram-positive bacteria: A novel approach for the treatment of bacterial keratitis” (Scientific Reports, 2021):
Converted amounts (≈) assume the structure as drawn. “And” between values parts separate entries of the source, which are not always exact repeats. Identical values can stand only once. Like-named read-outs stand apart in the source and are kept apart here. Peptide text beside a SMILES is read from it.

Key:
Hemolytic assay = type: cell-based; details: human
Description: (§1) Ethical approval was obtained from the Local Research Ethics Committee of University of Nottingham prior to the experiment (Ref: 176-1812). The experiment was conducted in accordance with the relevant guidelines and regulations. Hemolytic assay was performed according to the previously established protocol. Briefly, 5 ml of fresh human blood was collected from healthy participants with written informed consent, in an EDTA tube and centrifuged for 10 min at 1300g at 10 °C for separation of plasma. The remaining erythrocytes were rinsed and centrifuged further three times in Ca^2+/Mg^2+ free Dulbecco’s phosphate-buffered saline (DPBS). Subsequently, erythrocytes were diluted to 8% v/v in DPBS and incubated with 100 μl of treatment, positive control (1% Triton X-100) and negative control (DPBS), all in 1:1 ratio, for 1 h (final erythrocytes concentration = 4% v/v). After 1 h of incubation, the plate was centrifuged at 500×g for 5 min and 100 μl of supernatant of each well was transferred into a 96-well plate for measurement at OD540. Hemolysis (%) was calculated as [(Itreatment – INC)/(IPC – INC)] × 100.

fresh human erythrocytes = assay: Hemolytic assay; type: cell-based; details: 1 h
Description: as §1

P. aeruginosa PAO1-L = assay: microbe, parasite or virus in culture; type: cell-based; details: Pseudomonas aeruginosa, PAO1, 24 h, caMHB, 24 h, read-out: MIC
Text: (§2) A range of Gram-positive and Gram-negative laboratory- and clinical-strain bacteria were used for the experiments. These included laboratory-strain methicillin-sensitive S. aureus (MSSA; including SH1000 and ATCC SA29213), laboratory-strain MRSA (ATCC MRSA43300), clinical-strain MRSA (MRSA-OS; an IK isolate), laboratory-strain methicillin-sensitive Staphylococcus epidermidis (MSSE; ATCC SE12228), laboratory invasive-strain P. aeruginosa (PAO1-L), and clinical cytotoxic-strain P. aeruginosa (PA-OS; an IK isolate).
(§3) In vitro antimicrobial efficacy of the antibiotics and designed HDPs was determined using an established MIC assay with broth microdilution method approved by the Clinical and Laboratory Standards Institute (CLSI)[64]. Briefly, the microorganisms were cultured on Tryptone Soya Agar (TSA) and incubated overnight for 18–21 h at 37 °C. Bacterial inoculums were subsequently prepared using the direct colony suspension method. Three to five bacterial colonies were obtained from the agar plate and inoculated into an Eppendorf tube containing 1 ml of cation-adjusted Muller-Hinton broth (caMHB), consisting of 20–25 mg/L calcium ions (Ca^2+) and 10–12.5 mg/L magnesium ions (Mg^2+). The bacterial suspension was adjusted to achieve a turbidity equivalent to 0.1 OD600 or 0.5 MacFarland, containing ~ 1.5 × 10^8 colony-forming unit (CFU)/ml, which was then further diluted in 1:150 in caMHB to reach a final bacterial concentration of ~ 1 × 10^6 colony forming units (CFU)/ml. Each treatment (peptide or antibiotic) was prepared in 1:2 serial dilution in 96-well polypropylene microplates (with a final treatment volume of 50 μl per well), followed by the addition of 50 μl of 1 × 10^6 CFU/ml bacteria into each well (with a final bacterial concentration of 5 × 10^5 CFU/ml).

P. aeruginosa PA-OS = assay: microbe, parasite or virus in culture; type: cell-based; details: 24 h
Text: as §2, §3

MRSA-OS = assay: microbe, parasite or virus in culture; type: cell-based, Staphylococcus aureus; details: 24 h
Text: as §2, §3

S. aureus SH1000 = assay: microbe, parasite or virus in culture; type: cell-based, Staphylococcus aureus; details: Staphylococcus aureus, SH1000, 24 h, caMHB, 24 h, read-out: MIC
Text: as §2, §3

[1] = test system: human corneal epithelial cells (HCE-2); assay: cells; type: cell-based; details: Homo sapiens, Corneal epithelial cell, 3 h, read-out: IC50 (concentration causing 50% inhibition of cell viability)
Description: (§4) Cell viability and cytotoxicity of antibiotics and peptides were determined against human corneal epithelial cells (HCE-2, CRL-11135, ATCC, Manassas, Virginia, USA) using cell-counting-kit-8 (CCK-8) assay (Sigma Aldrich, Merck Life Science UK Limited, Dorset, UK) and lactate dehydrogenase (LDH) assay (ThermoFisher Scientific, UK), respectively, as per manufacturer’s guidelines. HCE-2 cells were cultured and seeded into a 96-well plate at a density of 7.5 × 10^3 cells/well and allowed to attach overnight and grew to 80–90% confluency in keratinocyte serum free medium (KSFM) supplemented with human recombinant epidermal growth factor, bovine pituitary extract, hydrocortisone, and insulin. Once the confluency reached 80–90%, the cells were incubated with treatment for 3 h before OD450 measurement was taken using BMG Clariostar microplate reader (BMG Labtech Ltd., Aylesbury, UK). Appropriate controls were used, including 0.1% Triton X-100 as positive control and KSFM as negative control. Cell viability was calculated using the following formula: [([…]) × 100; I = intensity] and cytotoxicity was calculated using the following formula: [((Itreatment – INC)/(IPC – INC)) × 100].

S. aureus ATCC SA29213 = assay: Multipassage antimicrobial resistance (AMR) assay; type: cell-based, Staphylococcus aureus
Description: Multipassage AMR assays were performed to evaluate the risk of development of AMR of S. aureus (ATCC SA29213) against CaD23 and amikacin over 10 consecutive passages (days). The assay was conducted in a similar manner of the MIC assay described above. […] This was then further diluted in 1:150 in caMHB to reach a final bacterial concentration of ~ 1 × 10^6 colony forming units (CFU)/ml. […] Development of AMR was defined as ≥ fourfold increase in the MIC level compared to the baseline.

S. aureus (SH1000) = assay: Time-kill kinetics assay; type: cell-based, Staphylococcus aureus
Description: Time-kill kinetics assay was performed to determine the time-dependent and concentration-dependent in vitro antimicrobial effects of the CaD23 and amikacin, a commonly used topical antibiotics for BK, against 100 μl of ~ 1 × 10^6 CFU/ml of SH1000 (1:1 treatment-bacteria ratio) at various time points, including 0 min (pre-treatment), 15 min, 30 min, 60 min, 2 h, 4 h, and 24 h. At each time point, 10 μl of the treated bacteria was transferred to an Eppendorf tube containing 90 μl of PBS, which was then serially diluted in 1:10 concentration for inoculation on agar plates and incubated overnight for 18–21 h at 37 °C for enumeration of CFU.

[2] = test system: human corneal epithelial cells (HCE-2); assay: in vitro; type: cell-based; details: human, 3 h, 200 µg/ml
Description: as §4

in vitro = type: cell-based, human; details: human
Description: as §4

corneal epithelial wound = details: mouse, in vivo
Description: The in vivo studies were conducted in two stages, namely the corneal wound healing study (for safety) and BK study (for efficacy), based on previously established protocols[54],[65]. […] The mice were maintained and treated in compliance with the Guide for the Care and Use of Laboratory Animals (National Research Council) and the ARVO statement for the Use of Animals in Ophthalmic and Vision Research. […]
In vivo safety of CaD23 (in 0.03%, 0.05% or 0.1%), and PBS (negative control) was first determined in a mouse corneal epithelial wound healing model. In the absence of in vivo pilot data of our designed HDPs, the sample size was calculated based on a previous study. […]
All mice were randomly allocated to each of the four treatment groups (n = 4 mice/group). […] Corneal epithelial defect was assessed using a cobalt-blue filter-equipped slit-lamp biomicroscopy and photography with staining with topical sodium fluorescein 1% at baseline (immediately post-debridement) and daily up to 3 days post-treatment. Fluorescein-stained images of the corneal wound defect were analyzed using ImageJ software (https://imagej.nih.gov/ij/)[68]. The main outcome measure was the wound size at the end of day 1, 2 and 3 [expressed as % of the original wound size in mean and standard deviation (SD)]. […]

[3] = test system: S. epidermidis ATCC 12228; type: cell-based, Staphylococcus epidermidis; details: ATCC 12228, 24 h
Text: as §2
In vitro antimicrobial efficacy of the antibiotics and designed HDPs was determined using an established MIC assay with broth microdilution method approved by the Clinical and Laboratory Standards Institute (CLSI)[64]. Briefly, the microorganisms were cultured on Tryptone Soya Agar (TSA) and incubated overnight for 18–21 h at 37 °C. Bacterial inoculums were subsequently prepared using the direct colony suspension method. Three to five bacterial colonies were obtained from the agar plate and inoculated into an Eppendorf tube containing 1 ml of cation-adjusted Muller-Hinton broth (caMHB), consisting of 20–25 mg/L calcium ions (Ca^2+) and 10–12.5 mg/L magnesium ions (Mg^2+). […]

MRSA ATCC 43300 = type: cell-based, Staphylococcus aureus; details: ATCC 43300, 24 h
Text: as §2, §3

MSSA = type: cell-based, Staphylococcus aureus
Text: as §2, §3

MRSA = type: cell-based, Staphylococcus aureus
Text: as §2, §3

S. aureus ATCC 29213 = type: cell-based, Staphylococcus aureus; details: ATCC 29213, 24 h
Text: as §2, §3

NCC[C@H](O)C(=O)N[C@@H]1C[C@H](N)[C@@H](O[C@H]2O[C@H](CN)[C@@H](O)[C@H](O)[C@H]2O)[C@H](O)[C@H]1O[C@H]1O[C@H](CO)[C@@H](O)[C@H](N)[C@H]1O [Amikacin, amikacin, reference compound]
hemolysis at 1 h, 200 µg/ml (Hemolytic assay; fresh human erythrocytes (4% v/v), human erythrocytes, 200 µg/ml, 1 h, mean (SD), read-out: Hmax (%): percentage of hemolysis at 200 µg/ml): 0% | HC50 (concentration causing 50% hemolysis) (fresh human erythrocytes): > 200 µg/mL | MIC (P. aeruginosa PAO1-L; 0 mM NaCl): 0.63 µg/mL and 1.08 µM | MIC (P. aeruginosa PAO1-L; 150 mM NaCl): 1.25 µg/mL and 2.13 µM | MIC (P. aeruginosa PA-OS; Pseudomonas aeruginosa, 0 mM NaCl, caMHB, read-out: MIC): 0.63 µg/mL and 1.08 µM | MIC (P. aeruginosa PA-OS; Pseudomonas aeruginosa, 150 mM NaCl, caMHB, read-out: MIC): 1.25 µg/mL and 2.13 µM | MIC (MRSA-OS; 150 mM NaCl, caMHB): 10 µg/mL | MIC (MRSA-OS; 150 mM NaCl, caMHB, read-out: MIC): 17.1 µM | MIC (MRSA-OS; Staphylococcus aureus, MRSA, 0 mM NaCl, caMHB, read-out: MIC): 10 µg/mL and 17.1 µM | MIC (S. aureus SH1000; 0 mM NaCl): 1.25 µg/mL and 2.13 µM | MIC (S. aureus SH1000; 150 mM NaCl): 2.5 µg/mL and 4.27 µM | IC50 [1]: > 200 µg/mL | Increase in the MIC after the 2nd passage (S. aureus ATCC SA29213; 2nd passage): fourfold | Increase in the MIC after the 10th passage (S. aureus ATCC SA29213; 10 consecutive passages (days)): 32 fold | Development of AMR after 10 consecutive passages (S. aureus ATCC SA29213; AMR defined as ≥ fourfold increase in MIC vs baseline): developed significant AMR | Bacterial re-growth at 24 h time-point (S. aureus (SH1000); CaD23 25 μg/ml, amikacin 10 μg/ml and 25 μg/ml): no evidence of bacterial re-growth | Time to complete killing (S. aureus (SH1000); amikacin 20 μg/ml (8× MIC), caMHB with 150 mM NaCl): ≤ 4 h | Speed of killing relative to CaD23 (times slower) (S. aureus (SH1000); amikacin 25 μg/ml (20× MIC) vs CaD23 25 μg/ml (2× MIC)): 8 times | Time to complete killing (S. aureus (SH1000); amikacin 8× MIC (10 μg/ml), caMHB): ≤ 4 h | Lmax (%): percentage of cytotoxicity at 200 µg/ml [2]: 0.0 (0.1) % | CC50 at 3 h (in vitro): > 200 µg/mL

CC[C@H](C)[C@H](NC(=O)[C@H](CCCNC(=N)N)NC(=O)[C@H](CCC(N)=O)NC(=O)[C@@H](NC(=O)[C@@H](NC(=O)[C@H](CCCNC(=N)N)NC(=O)[C@@H](N)CCCCN)[C@@H](C)CC)C(C)C)C(=O)N[C@@H](CCCCN)C(=O)N[C@@H](CC(=O)O)C(=O)N[C@@H](Cc1c[nH]c2ccccc12)C(=O)N[C@@H](CC(C)C)C(=O)N[C@@H](CCCNC(=N)N)C(=O)N[C@@H](CCCCN)C(=O)N[C@@H](CC(C)C)C(=O)N[C@@H](CS)C(=O)N[C@@H](CCCCN)C(=O)N[C@@H](CCCCN)C(=O)N[C@@H](Cc1c[nH]c2ccccc12)C(=O)O [CaD23, KRIVQRIKDW LRKLCKKW] (H-KRIVQRIKDWLRKLCKKW-OH; N-terminus and C-terminus assumed)
hemolysis at 1 h, 200 µg/ml (Hemolytic assay; Hmax (%): percentage of hemolysis at 200 µg/ml): < 10% | MIC (P. aeruginosa PA-OS; PA-OS): 50 µg/mL (≈ 20.9 µM) | Mean wound size (% of original wound size) (corneal epithelial wound): 28.5 ± 19.9% | MIC (MRSA-OS; -OS): 100 µg/mL | MIC [3]: 5.2 µM (≈ 12.5 µg/mL) | MIC (MRSA ATCC 43300): 100 µg/mL (≈ 41.7 µM) | MIC (MSSA): 12.5 to 25.0 µg/mL | MIC (MRSA): 25 µg/mL (≈ 10.4 µM) | MIC (S. aureus ATCC 29213): 50 µg/mL (≈ 20.9 µM) | CC50 at 3 h (in vitro): > 200 µg/mL
